Source: patent US11999727B2 (Tango Therapeutics, Inc., priority 2020, dated 2024)

Tests used:
[1] = target: T1, PRMT5 (Homo sapiens, UniProt O14744); assay: PRMT5 biochemical IC50 assay with SAM as cofactor; conditions: PRMT5, SAM as cofactor; read-out: SAM IC50
T1 construct: purchased Viva (custom protein)

[2] = tested on: HAP1 MTAP-intact cell line; assay: SDMA in-cell western assay, HAP1 MTAP-intact; format: cell-based; conditions: Homo sapiens, HAP1, SDMA in-cell western, HAP1 MTAP-intact; read-out: MTAP HAP1 intact IC50
Method in brief: (§1)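 Readout: in-cell western detection of SDMA. Cells: HAP1 expressing endogenous MTAP and an MTAP-null HAP1 counterpart. Output: IC50.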

[3] = tested on: HAP1 MTAP-deleted cell line; assay: Viability assay, MTAP-deleted cell line; format: cell-based; conditions: Homo sapiens, read-out: HAP1 MTAP deleted viability
Excerpt: Table 1 additionally indicates IC50 values in a viability assay for the MTAP-deleted cell line (column 10), indicating the effect of treatment with compound on cell survival.

[4] = tested on: HAP1 MTAP-deleted cell line; assay: SDMA in-cell western assay, HAP1 MTAP-deleted; format: cell-based; conditions: for IC50: Homo sapiens, HAP1, SDMA in-cell western, HAP1 MTAP-deleted; for MTAP intact/deleted ratio: SDMA in-cell western
Method in brief: as §1

[5] = target: T1, PRMT5; assay: PRMT5 biochemical IC50 assay with no cofactor; conditions: PRMT5, no cofactor
Excerpt: Table 1 indicates IC50 values (μM) against PRMT5 for exemplary compounds in the presence of SAM as cofactor, with no cofactor, and with MTA as cofactor, respectively (columns 4-6). […] Ki values can be calculated from the IC50 values as described in the Examples section. As detailed in the Examples section, for the assay performed in the presence of SAM, IC50=Ki×1.5 (Ki=IC50/1.5).

[6] = target: T1, PRMT5; assay: PRMT5 biochemical IC50 assay with MTA as cofactor; conditions: PRMT5, MTA as cofactor; read-out: MTA IC50
[7] = HAP1, viability, HAP1 MTAP-deleted cell line
[8] = read-out: HAP 1 MTAP deleted IC50
[9] = IC50 ratio HAP1 MTAP-intact / HAP1 MTAP-deleted
[10] = read-out: No Cofactor/ rel IC50

T1 sequence (O14744 whole entry): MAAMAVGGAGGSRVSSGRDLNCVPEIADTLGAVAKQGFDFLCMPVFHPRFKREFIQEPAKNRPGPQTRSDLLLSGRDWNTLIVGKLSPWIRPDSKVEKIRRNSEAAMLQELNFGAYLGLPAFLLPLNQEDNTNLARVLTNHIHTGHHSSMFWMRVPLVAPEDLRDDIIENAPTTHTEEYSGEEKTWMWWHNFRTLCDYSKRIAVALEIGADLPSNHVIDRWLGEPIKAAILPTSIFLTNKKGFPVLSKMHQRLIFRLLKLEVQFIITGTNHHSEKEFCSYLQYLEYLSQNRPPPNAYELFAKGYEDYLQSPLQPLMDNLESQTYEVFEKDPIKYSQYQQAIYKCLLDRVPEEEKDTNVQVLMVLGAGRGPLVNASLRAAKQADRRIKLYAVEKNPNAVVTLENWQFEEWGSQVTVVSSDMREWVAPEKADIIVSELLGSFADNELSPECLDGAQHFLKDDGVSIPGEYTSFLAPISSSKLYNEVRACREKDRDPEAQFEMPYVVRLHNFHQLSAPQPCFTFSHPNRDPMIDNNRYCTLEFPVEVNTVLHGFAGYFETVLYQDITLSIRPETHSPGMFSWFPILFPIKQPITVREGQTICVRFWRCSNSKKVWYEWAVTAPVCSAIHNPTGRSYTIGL
T1 sequence (Q9BQA1 whole entry partner): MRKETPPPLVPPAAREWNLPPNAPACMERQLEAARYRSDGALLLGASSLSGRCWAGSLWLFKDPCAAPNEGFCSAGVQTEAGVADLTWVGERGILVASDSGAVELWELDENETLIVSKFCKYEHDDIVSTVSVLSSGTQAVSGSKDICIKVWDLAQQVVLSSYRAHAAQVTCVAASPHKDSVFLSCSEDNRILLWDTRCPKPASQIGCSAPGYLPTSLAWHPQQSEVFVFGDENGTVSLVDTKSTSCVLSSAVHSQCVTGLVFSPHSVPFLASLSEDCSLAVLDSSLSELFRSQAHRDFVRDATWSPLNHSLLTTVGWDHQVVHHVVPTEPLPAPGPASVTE

SMILES	IC50 [1] [µM]	IC50 [2] [µM]	IC50 [3, 7] [µM]	IC50 [4, 8] [µM]	MTAP intact/deleted ratio [4, 9]	IC50 [5, 10] [µM]	IC50 [6] [µM]	IC50 ([3]; HAP1, viability IC50, MTAP-deleted cell line) [µM]	IC50 ([5]; read-out: No Cofactor/rel IC50) [µM]	IC50 ([3]; HAP1, viability assay, MTAP-deleted cell line) [µM]	IC50 ([4]; read-out: HAP1 MTAP deleted IC50) [µM]	MTAP intact/deleted ratio ([4]; IC50 ratio HAP1 MTAP-intact vs HAP1 MTAP-deleted)
COc1ncc(NC(=O)C(=O)N2C[C@@H](C)CC[C@@H]2c2ccc3sc([C@@H]4CCN(C)C4)nc3c2)cc1C(N)=O (racemic) [Compound 1278, 2-methoxy-5-[[2-oxo-2-[rac-(2R,5S)-5-methyl-2-[2-[rac-(3R)-1-methylpyrrolidin-3-yl]-1,3-benzothiazol-5-yl]-1-piperidyl]acetyl]amino]pyridine-3-carboxamide]	< 0.05	< 0.1	< 1	< 0.1	A (an IC50 ratio greater than or equal to 10 fold)	< 0.05	< 0.05					
COc1ncc(NC(=O)C(=O)N2C[C@@H](C)CC[C@@H]2c2ccc3sc(CCN(C)C)nc3c2)cc1C(N)=O (racemic) [Compound 1281, 5-[[2-[(2R,5S)-2-[2-[2-(dimethylamino)ethyl]-1,3-benzothiazol-5-yl]-5-methyl-1-piperidyl]-2-oxo-acetyl]amino]-2-methoxy-pyridine-3-carboxamide]	0.05 to 0.5	0.1 to 1	< 1	< 0.1	A (an IC50 ratio greater than or equal to 10 fold)	0.05 to 0.5	< 0.05					
CCc1cc(NC(=O)C(=O)N2C[C@@H](C)CC[C@@H]2c2ccc(N3C[C@H]4CN(C)CC[C@H]4C3)cc2)cnc1N (racemic) [Compound 1287, N-(6-amino-5-ethyl-3-pyridyl)-2-oxo-2-[rac-(2R,5S)-5-methyl-2-[4-[rac-(3aR,7aR)-5-methyl-3,3a,4,6,7,7a-hexahydro-1H-pyrrolo[3,4-c]pyridin-2-yl]phenyl]-1-piperidyl]acetamide]	0.05 to 0.5	0.1 to 1	< 1	< 0.1	A (an IC50 ratio greater than or equal to 10 fold)	< 0.05	< 0.05					
CCc1cc(NC(=O)C(=O)N2C[C@@H](C)CC[C@@H]2c2ccc3cn(C4CC(C)(C)N(C)C(C)(C)C4)nc3c2)cnc1N (racemic) [Compound 1295, N-(6-Amino-5-ethyl-3-pyridyl)-2-oxo-2-[rac-(2R,5S)-5-methyl-2-[2-(1,2,2,6,6-pentamethyl-4-piperidyl)indazol-6-yl]-1-piperidyl]acetamide]	< 0.05	< 0.1	< 1	< 0.1	A (an IC50 ratio greater than or equal to 10 fold)	< 0.05	< 0.05					
COc1ncc(NC(=O)C(=O)N2C[C@@H](C)CC[C@@H]2c2ccc3cn(C4CCN(C)CC4)nc3c2)cc1C(N)=O (racemic) [Compound 1299, 2-Methoxy-5-[[2-oxo-2-[rac-(2R,5S)-5-methyl-2-[2-(1-methyl-4-piperidyl)indazol-6-yl]-1-piperidyl]acetyl]amino]pyridine-3-carboxamide]	< 0.05	< 0.1	< 1	< 0.1	B (an IC50 ratio greater than or equal to 3 fold but lower than 10 fold)	< 0.05	< 0.05					
CCc1cc(NC(=O)C(=O)N2C[C@@H](C)CC[C@@H]2c2ccc(OCCN(C)C)c(Cl)c2)cnc1N (racemic) [Compound 1305, N-(6-Amino-5-ethyl-3-pyridyl)-2-oxo-2-[rac-(2R,5S)-2-[3-chloro-4-[2-(dimethylamino)ethoxy]phenyl]-5-methyl-1-piperidyl]acetamide]	0.05 to 0.5	< 0.1	< 1	< 0.1	A (an IC50 ratio greater than or equal to 10 fold)	< 0.05	< 0.05					
COc1ncc(NC(=O)C(=O)N2C[C@@H](C)CC[C@@H]2c2ccc3nn([C@H]4CCN(C)C4)cc3c2)cc1C(N)=O (racemic) [Compound 1318, 2-Methoxy-5-[[2-oxo-2-[rac-(2R,5S)-5-methyl-2-[2-[rac-(3S)-1-methylpyrrolidin-3-yl]indazol-5-yl]-1-piperidyl]acetyl]amino]pyridine-3-carboxamide]	0.05 to 0.5	0.1 to 1	< 1	< 0.1	A (an IC50 ratio greater than or equal to 10 fold)	< 0.05	< 0.05					
CCc1cc(NC(=O)C(=O)N2C[C@@H](C)CC[C@@H]2c2ccc(N3CCOC4(CN(C)C4)C3)cc2)cnc1N (racemic) [Compound 1329, rac-N-(6-Amino-5-ethyl-3-pyridyl)-2-[(2R,5S)-5-methyl-2-[4-(2-methyl-5-oxa-2,8-diazaspiro[3.5]nonan-8-yl)phenyl]-1-piperidyl]-2-oxo-acetamide]	0.05 to 0.5	> 1	< 1	< 0.1		0.05 to 0.5	0.05 to 0.5					
CCc1cc(NC(=O)C(=O)N2C[C@@H](C)[C@H](OC(C)C)C[C@@H]2c2ccc3scnc3c2)cnc1N (racemic) [Compound 1343, N-(6-Amino-5-ethyl-3-pyridyl)-2-[(2S,4S,5S)-2-(1,3-benzothiazol-5-yl)-4-isopropoxy-5-methyl-1-piperidyl]-2-oxo-acetamide]	0.05 to 0.5	0.1 to 1	< 1	< 0.1	A (an IC50 ratio greater than or equal to 10 fold)	0.05 to 0.5	0.05 to 0.5					
C[C@@H]1CC[C@@H](c2ccc3sc(CCN(C)C)nc3c2)N(C(=O)C(=O)Nc2cncc(C(N)=O)c2)C1 (racemic) [Compound 1355, 5-(2-(2-(2-(2-(dimethylamino)ethyl)benzo[d]thiazol-5-yl)-5-methylpiperidin-1-yl)-2-oxoacetamido)nicotinamide]	0.05 to 0.5	0.1 to 1	< 1	< 0.1	A (an IC50 ratio greater than or equal to 10 fold)	0.05 to 0.5	< 0.05					
CCc1cc(NC(=O)C(=O)N2CC(C)CCC2c2ccc3sc(C4CCN(C)CC4C)nc3c2)cnc1N (racemic) [Compound 1373, N-(6-amino-5-ethyl-3-pyridyl)-2-oxo-2-[rac-(2R,5S)-5-methyl-2-[2-[rac-(3S,4S)-1,3-dimethyl-4-piperidyl]-1,3-benzothiazol-5-yl]-1-piperidyl]acetamide]	< 0.05	< 0.1	< 1	< 0.1	B (an IC50 ratio greater than or equal to 3 fold but lower than 10 fold)	< 0.05	< 0.05					
CCc1cc(NC(=O)C(=O)N2C[C@@H](C)CC[C@@H]2c2ccc(N3CCN(CC)CC3)c(C)c2)cnc1N (racemic) [Compound 1376, N-(6-Amino-5-ethyl-3-pyridyl)-2-oxo-2-[rac-(2R,5S)-2-[4-(4-ethylpiperazin-1-yl)-3-methyl-phenyl]-5-methyl-1-piperidyl]acetamide]	0.05 to 0.5	0.1 to 1	< 1	< 0.1	A (an IC50 ratio greater than or equal to 10 fold)	< 0.05	< 0.05					
CCc1cc(NC(=O)C(=O)N2C[C@@H](C)CC[C@@H]2c2ccc3nn([C@@H]4CCN(C)C4)cc3c2)cnc1N (racemic) [Compound 1398, N-(6-Amino-5-ethyl-3-pyridyl)-2-oxo-2-[rac-(2R,5S)-5-methyl-2-[2-[rac-(3R)-1-methylpyrrolidin-3-yl]indazol-5-yl]-1-piperidyl]acetamide]	0.05 to 0.5	< 0.1	< 1	< 0.1	A (an IC50 ratio greater than or equal to 10 fold)	0.05 to 0.5	< 0.05					
Cc1cc(NC(=O)C(=O)N2C[C@H](C)CC[C@H]2c2ccc3c(c2)CCC(=O)N3)cnc1C (relative stereo) [Compound 632]	0.05 to 0.5	0.1 to 1		< 0.1	A (an IC50 ratio greater than or equal to 10 fold)		< 0.05	< 1	< 0.05			
CO[C@H]1C[C@H](c2ccc3scnc3c2)N(C(=O)C(=O)Nc2cnc(N)c(C)c2)C[C@H]1C (relative stereo) [Compound 1216]	0.05 to 0.5	< 0.1					< 0.05		< 0.05	< 1	< 0.1	B (an IC50 ratio greater than or equal to 3 fold but lower than 10 fold)
